Common to all, as to experiment: NCI anticancer screen, dose series, 48 h
Assay [1] has as its system SK-MEL-28 melanoma.
The test system of assay [2] is HT29 colon.
The subject of assay [3] is M14 melanoma.
Assay [4] relates to RXF 393 renal.
Assay [5] relates to SNB-75 CNS.
Assay [6] has as its system NCI-H522 lung.
Assay [7] relates to SF-268 CNS.
Assay [8] relates to UACC-62 melanoma.
Assay [9] relates to SNB-19 CNS.
The subject of assay [10] is K-562 leukemia.

The values below come from PubChem BioAssay (NCI).

The structures appear in SMILES notation.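 Method: 48-hour compound exposure of cells in 96-well plates, five concentrations, linear interpolation of endpoints. At the GI50, growth is halved. TGI is the concentration that stops growth completely.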 Some results are limits rather than exact numbers.

For the molecule `N#CC(Nc1cccc(C(F)(F)F)c1)c1ccccc1C(F)(F)F` (centres undefined), the TGI in assay [1] was determined as 31.8 µM; in [2], 28 µM; in assay [3] it was 17.6 µM; in assay [4], 24.8 µM; in assay [5], 32.2 µM; in assay [6], 17.1 µM. Also, the TGI in assay [7] turned out to be 32.2 µM; in assay [8], 31.4 µM; in assay [9], 31.9 µM; in assay [10] it was 42.4 µM.
For the molecule `c1ccc(N=c2nc(N3CCOCC3)ss2)cc1`, the TGI in assay [1] was found to be 32.1 µM; in assay [2], 35.4 µM; in assay [3], 27.9 µM; in [4], 31.3 µM; in assay [5], 39 µM; in assay [6], 25.3 µM. The TGI is 31.1 µM in assay [7], 27.5 µM in [8], more than 100 µM in [9] and 43.6 µM in [10].
For the molecule `CCOc1ccc(/C(C=O)=C(\Cl)c2ccc(OC)c(OC)c2)cc1`, the TGI in assay [1], in [2], in assay [3], in assay [6], in [7] and in [8] was more than 100 µM each time. Moreover, the TGI in assay [9] and in [10] was more than 100 µM in each case.
For `CCCC(N)C(=O)c1ccccc1` (centres undefined), the TGI in assay [1], in assay [2], in assay [3], in [4], in assay [5] and in [6] was more than 100 µM each time. In addition, the TGI in assay [7], in assay [8], in assay [9] and in [10] was more than 100 µM each time.
On to `Cc1cc2c(C(C)C)c(O)c(O)c(C=NCCO)c2c(O)c1-c1c(C)cc2c(C(C)C)c(O)c(O)c(C=NCCO)c2c1O`, for which the TGI in [1] was 3.66 µM; in [2], 4.99 µM; in assay [3], 3.58 µM; in assay [4] it was 9.51 µM; in [5], 9.13 µM; in assay [6], 4.78 µM. Moreover, the TGI turned out to be 3.1 µM in [7], 6.15 µM in [8], 25.1 µM in [9] and 3.31 µM in assay [10].
In the case of `O=C(Nc1ccc(Sc2ccc(N=Nc3c(O)c(S(=O)(=O)O)cc4cc(S(=O)(=O)O)ccc34)cc2)cc1)c1ccc(N=Nc2c(O)ccc3c(S(=O)(=O)O)cc(S(=O)(=O)O)cc23)cc1`, the TGI in assay [1] is more than 100 µM; in assay [2] it was more than 100 µM; in assay [3] it was 66.2 µM; in assay [4], more than 100 µM; in assay [5], more than 100 µM; in [6], 40.2 µM. The TGI is more than 100 µM in assay [7], 49.7 µM in assay [8], more than 100 µM in [9] and 87.6 µM in assay [10].
With `O=C(Nc1c(C(=O)NC2CCCCC2)[nH]c(=O)[nH]c1=O)c1ccc(Cl)cc1`, the TGI in assay [1] is more than 100 µM; in [2] it was more than 100 µM; in assay [3], more than 100 µM; in [4], more than 100 µM; in [5] it was 85.1 µM; in assay [6], more than 100 µM. In addition, the TGI in assay [7], in [8] and in assay [10] was more than 100 µM in each case.
As to `CC(=O)O[C@H]1C=CC(=O)C(C)CC1C` (some centres undefined), the TGI in assay [1], in assay [2], in assay [3], in assay [4], in assay [5] and in assay [6] was more than 100 µM throughout. Further, the TGI in [7], in assay [8], in assay [9] and in [10] was more than 100 µM each time.
Regarding `CCC(=O)NC(Nc1cccc(F)c1)(C(F)(F)F)C(F)(F)F`, the TGI in assay [1], in [2], in assay [3], in assay [4], in assay [5] and in [6] was more than 100 µM each time. The TGI in [7], in assay [8], in [9] and in assay [10] was more than 100 µM each time.
As for `Clc1ccc(CNc2nc(Cl)c3[nH]cnc3n2)cc1Cl`, the TGI in [2] is 83.4 µM; in [3] it was 70.3 µM; in [4], more than 100 µM; in assay [5], more than 100 µM; in assay [6] it was 34.4 µM; in assay [7], 81.8 µM. For the same molecule, the TGI in [8], in assay [9] and in assay [10] was more than 100 µM in each case.
As for `COc1ccc(-c2nn(-c3cccc(NC(=O)Nc4ccccc4)c3)cc2-c2ccncc2)cc1Cl`, the GI50 in assay [1] was 2.62 µM; in assay [2] it was 2.19 µM; in [3], 2.26 µM; in [4], 1.97 µM; in [5] it was 1.33 µM; in assay [6] it was 2.5 µM. Also, the GI50 in assay [7] is 2.6 µM; in assay [8], 3.05 µM; in assay [9], 2.83 µM; in [10], 3.49 µM. Further, the TGI is 7.16 µM in assay [1]; 4.78 µM in assay [2]; 4.85 µM in [3]; 6.47 µM in assay [4]; 2.79 µM in assay [5]; 7.22 µM in assay [6]. Besides, the TGI in [7] is 7 µM; in assay [8], more than 100 µM; in assay [9], more than 100 µM; in [10] it was more than 100 µM.
With `NC1(C(=O)O)CCc2ccc(N(CCCl)CCCl)cc2C1` (centres undefined), the TGI in assay [1] was more than 100 µM; in [2] it was more than 100 µM; in assay [4] it was more than 100 µM; in assay [5], more than 100 µM; in assay [6], 74.3 µM; in [7] it was 87 µM. Further, the TGI in assay [8], in [9] and in [10] was more than 100 µM each time.
As to `CN1C[C@H]2[C@@H](C1=O)[C@H](c1ccccc1)ON2C`, the TGI in assay [1], in assay [2], in assay [3], in [5], in assay [6] and in [9] was more than 100 µM in each case. The molecule further gave a TGI in [10] of more than 100 µM.
Take `O=C(O)C1CCC(=O)N1S(=O)(=O)c1ccccc1` (centres undefined): the TGI in assay [1], in assay [2], in assay [4], in assay [5], in [6] and in assay [7] was more than 100 µM each time. For the same molecule, the TGI in assay [8], in assay [9] and in [10] was more than 100 µM each time.
With `Fc1ccc(-c2nn3c(-c4cc(C(F)(F)F)cc(C(F)(F)F)c4)nnc3s2)cc1`, the GI50 is more than 50 µM in assay [2]; more than 50 µM in assay [3]; 1.78 µM in assay [4]; 0.886 µM in [5]; 2.3 µM in [6]; 3.03 µM in assay [7]. Further, the GI50 in [8] is more than 50 µM; in assay [9] it was 1.57 µM; in assay [10], more than 50 µM. Moreover, the TGI in assay [2] is more than 50 µM; in [3] it was more than 50 µM; in assay [4] it was more than 50 µM; in [5], 2.36 µM; in [6] it was more than 50 µM; in assay [7] it was more than 50 µM. Also, the TGI in assay [8], in assay [9] and in assay [10] was more than 50 µM each time.
